Source: ChEMBL document CHEMBL1128969, “Design, synthesis and in vitro activities of a series of benzimidazole/benzoxazole glycoprotein IIb/IIIa inhibitors” (Bioorg Med Chem Lett, 1996)

species on record: Homo sapiens; test: In vitro inhibition of platelet aggregation using Human platelet-Rich Plasma; assay type: functional

IC50 [µM] | Structure (SMILES) | Inhibition [%]
0.01 | Cc1ccc(S(=O)(=O)N[C@@H](CNC(=O)c2ccc3nc(-c4ccc(C(=N)N)cc4)oc3c2)C(=O)O)cc1 | 
83 | NCc1ccc(Cn2cnc3cc(C(=O)NCCC(=O)O)ccc32)cc1 | 
0.02 | CCCCOC(=O)N[C@@H](CNC(=O)c1ccc2nc(-c3ccc(C(=N)N)cc3)oc2c1)C(=O)O | 
16 | O=C(O)CCNC(=O)c1ccc2c(c1)ncn2CCCC1CCNCC1 | 
11 | Cc1nc2cc(C(=O)NCCC(=O)O)ccc2n1Cc1ccc(C(=N)N)cc1 | 
0.01 | Cc1ccc(S(=O)(=O)N[C@@H](CNC(=O)c2ccc3oc(-c4ccc(C(=N)N)cc4)nc3c2)C(=O)O)cc1 | 
100 | NCc1ccc(-c2nc3cc(C(=O)NCCC(=O)O)ccc3[nH]2)cc1 | 
 | NCc1ccc(-c2nc3cc(C(=O)N[C@@H](CC(=O)O)C(=O)NCCc4ccccc4)ccc3[nH]2)cc1 | 16
0.02 | CCCCOC(=O)N[C@@H](CNC(=O)c1ccc2oc(-c3ccc(C(=N)N)cc3)nc2c1)C(=O)O | 
0.05 | CCCCOC(=O)N[C@@H](CNC(=O)c1ccc2[nH]c(-c3ccc(C(=N)N)cc3)nc2c1)C(=O)O | 
61 | NCc1ccc(-c2nc3cc(C(=O)N[C@@H](CC(=O)O)C(=O)NCCc4c[nH]c5ccccc45)ccc3[nH]2)cc1 | 
6.8 | N=C(N)c1ccc(Cn2cnc3cc(C(=O)NCCC(=O)O)ccc32)cc1 | 
